According to US20240148733A1, “COMBINATION THERAPY” (Genentech, Inc., priority 2021, published 2024):

Tests used:
Test in all cases: Drug combination assay (CellTiter-Glo cell viability)
Assay type in all cases: cell-based
H2030 cells (KRAS G12C) = conditions: six days, 96-wells
Protocol: (§1) Cells were seeded in either 96-well or 384-well plates 16 h before treatment at a density of 1000 cells per well. Then, cells were treated with varying concentrations of compound(s) as indicated in FIGS. 1-8 (384-wells) and FIGS. 10-105 (96-wells), either a single agent or in combination, for six days. The relative number of viable cells was estimated using CellTiter-Glo Luminescent Cell Viability Assay (Promega, G7573). Total luminescence was detected on a Wallac Multilabel Reader (Perkin-Elmer).

[1] = system: H358 resistant cells (KRAS G12C); conditions: six days, 96-wells
Protocol: as §1

[2] = system: H358 parental cells (KRAS G12C); conditions: six days, 96-wells
Protocol: as §1

H2122 cells (KRAS G12C) = conditions: six days, 384-wells
Protocol: as §1

[3] = combination with Compound K1 (a KRAS inhibitor)
[4] = combination with Compound K2 (a KRAS inhibitor)
[5] = combination with Compound K3 (a KRAS inhibitor)
[6] = combination with Compound K4 (a KRAS inhibitor)

Cc1nccnc1-c1nn2c(=O)cc(-c3ccc(C4CCCCC4)cc3)[nH]c2c1C(=O)N1C[C@H](CF)[C@@H]1C (racemic) [Compound T9, 5-(4-cyclohexylphenyl)-2-(3-methylpyrazin-2-yl)-3-[rac-(2S,3S)-3-(fluoromethyl)-2-methyl-azetidine-1-carbonyl]-4H-pyrazolo[1,5-a]pyrimidin-7-one]
% inhibition of H2030 cells (KRAS G12C) (H2030 cells (KRAS G12C); [3]): sensitizes cells resistant to Compound K1 | % inhibition of H2030 cells (KRAS G12C) (H2030 cells (KRAS G12C); [4]): sensitizes cells resistant to Compound K2 | % inhibition of H2030 cells (KRAS G12C) (H2030 cells (KRAS G12C); [5]): sensitizes cells resistant to Compound K3 | % inhibition of H2030 cells (KRAS G12C) (H2030 cells (KRAS G12C); [6]): sensitizes cells resistant to Compound K4 | combination effect on cell viability (qualitative) [1, 3]: sensitizes cells resistant to Compound K1 | combination effect on cell viability (qualitative) [1, 4]: sensitizes cells resistant to Compound K2 | combination effect on cell viability (qualitative) [1, 5]: sensitizes cells resistant to Compound K3 | combination effect on cell viability (qualitative) [1, 6]: sensitizes cells resistant to Compound K4 | % inhibition of H358 parental cells (KRAS G12C) [2, 3]: sensitizes cells resistant to Compound K1 | % inhibition of H358 parental cells (KRAS G12C) [2, 4]: sensitizes cells resistant to Compound K2 | % inhibition of H358 parental cells (KRAS G12C) [2, 5]: sensitizes cells resistant to Compound K3 | % inhibition of H358 parental cells (KRAS G12C) [2, 6]: sensitizes cells resistant to Compound K4

C=CC(=O)Nc1cnc(OC)c(/C=C/[C@H]2CC[C@H](C(F)(F)F)CC2)c1 [Compound T3, N-(6-methoxy-5-((E)-2-((1r,4r)-4-(trifluoromethyl)cyclohexyl)vinyl)pyridin-3-yl)acrylamide]
% inhibition of H2030 cells (KRAS G12C) (H2030 cells (KRAS G12C); [3]): sensitizes cells resistant to Compound K1 | % inhibition of H2030 cells (KRAS G12C) (H2030 cells (KRAS G12C); [4]): sensitizes cells resistant to Compound K2 | % inhibition of H2030 cells (KRAS G12C) (H2030 cells (KRAS G12C); [5]): sensitizes cells resistant to Compound K3 | % inhibition of H2030 cells (KRAS G12C) (H2030 cells (KRAS G12C); [6]): sensitizes cells resistant to Compound K4 | % inhibition of H2122 cells (KRAS G12C) (H2122 cells (KRAS G12C); [3]): sensitizes cells resistant to Compound K1 | % inhibition of H2122 cells (KRAS G12C) (H2122 cells (KRAS G12C); [4]): sensitizes cells resistant to Compound K2 | combination effect on cell viability (qualitative) [1, 3]: sensitizes cells resistant to Compound K1 | combination effect on cell viability (qualitative) [1, 4]: sensitizes cells resistant to Compound K2 | combination effect on cell viability (qualitative) [1, 5]: sensitizes cells resistant to Compound K3 | combination effect on cell viability (qualitative) [1, 6]: sensitizes cells resistant to Compound K4 | % inhibition of H358 parental cells (KRAS G12C) [2, 3]: sensitizes cells resistant to Compound K1 | % inhibition of H358 parental cells (KRAS G12C) [2, 4]: sensitizes cells resistant to Compound K2 | % inhibition of H358 parental cells (KRAS G12C) [2, 5]: sensitizes cells resistant to Compound K3 | % inhibition of H358 parental cells (KRAS G12C) [2, 6]: sensitizes cells resistant to Compound K4

C=C(CNc1cc(-c2ccc(C(C)C)cc2)c2c(c1C#N)CCO2)C(=O)O [Compound T4, 2-(((4-cyano-7-(4-isopropylphenyl)-2,3-dihydrobenzofuran-5-yl)amino)methyl)acrylic acid]
% inhibition of H2122 cells (KRAS G12C) (H2122 cells (KRAS G12C); [3]): sensitizes cells resistant to Compound K1 | % inhibition of H2122 cells (KRAS G12C) (H2122 cells (KRAS G12C); [4]): sensitizes cells resistant to Compound K2

COc1cnc(C(=O)NCc2cccc(CC(=O)N(C)CCOCCOCCOCCOCCOc3ccc4c(c3)C(=O)N(C3CCC(=O)NC3=O)C4=O)c2)cc1/C=C/[C@H]1CC[C@H](C(F)(F)F)CC1 (stereo partly drawn) [Compound T5, N-[[3-[2-[2-[2-[2-[2-[2-[2-(2,6-dioxo-3-piperidyl)-1,3-dioxo-isoindolin-5-yl]oxyethoxy]ethoxy]ethoxy]ethoxy]ethyl-methyl-amino]-2-oxo-ethyl]phenyl]methyl]-5-methoxy-4-[rac-(E)-2-[4-(trifluoromethyl)cyclohexyl]vinyl]pyridine-2-carboxamide]
% inhibition of H2030 cells (KRAS G12C) (H2030 cells (KRAS G12C); [3]): sensitizes cells resistant to Compound K1 | % inhibition of H2030 cells (KRAS G12C) (H2030 cells (KRAS G12C); [4]): sensitizes cells resistant to Compound K2 | % inhibition of H2030 cells (KRAS G12C) (H2030 cells (KRAS G12C); [5]): sensitizes cells resistant to Compound K3 | % inhibition of H2030 cells (KRAS G12C) (H2030 cells (KRAS G12C); [6]): sensitizes cells resistant to Compound K4 | combination effect on cell viability (qualitative) [1, 3]: sensitizes cells resistant to Compound K1 | combination effect on cell viability (qualitative) [1, 4]: sensitizes cells resistant to Compound K2 | combination effect on cell viability (qualitative) [1, 5]: sensitizes cells resistant to Compound K3 | combination effect on cell viability (qualitative) [1, 6]: sensitizes cells resistant to Compound K4 | % inhibition of H358 parental cells (KRAS G12C) [2, 3]: sensitizes cells resistant to Compound K1 | % inhibition of H358 parental cells (KRAS G12C) [2, 4]: sensitizes cells resistant to Compound K2 | % inhibition of H358 parental cells (KRAS G12C) [2, 5]: sensitizes cells resistant to Compound K3 | % inhibition of H358 parental cells (KRAS G12C) [2, 6]: sensitizes cells resistant to Compound K4

C[C@@H](NC(=O)c1ccc2c(Oc3ccc(C(F)(F)F)cc3)cccc2c1)c1cccc(N)n1 [Compound T6, N-[(1R)-1-(6-amino-2-pyridyl)ethyl]-5-[4-(trifluoromethyl)phenoxy]naphthalene-2-carboxamide]
% inhibition of H2030 cells (KRAS G12C) (H2030 cells (KRAS G12C); [3]): sensitizes cells resistant to Compound K1 | % inhibition of H2030 cells (KRAS G12C) (H2030 cells (KRAS G12C); [4]): sensitizes cells resistant to Compound K2 | % inhibition of H2030 cells (KRAS G12C) (H2030 cells (KRAS G12C); [5]): sensitizes cells resistant to Compound K3 | % inhibition of H2030 cells (KRAS G12C) (H2030 cells (KRAS G12C); [6]): sensitizes cells resistant to Compound K4 | combination effect on cell viability (qualitative) [1, 3]: sensitizes cells resistant to Compound K1 | combination effect on cell viability (qualitative) [1, 4]: sensitizes cells resistant to Compound K2 | combination effect on cell viability (qualitative) [1, 5]: sensitizes cells resistant to Compound K3 | combination effect on cell viability (qualitative) [1, 6]: sensitizes cells resistant to Compound K4 | % inhibition of H358 parental cells (KRAS G12C) [2, 3]: sensitizes cells resistant to Compound K1 | % inhibition of H358 parental cells (KRAS G12C) [2, 4]: sensitizes cells resistant to Compound K2 | % inhibition of H358 parental cells (KRAS G12C) [2, 5]: sensitizes cells resistant to Compound K3 | % inhibition of H358 parental cells (KRAS G12C) [2, 6]: sensitizes cells resistant to Compound K4

C[C@H](NC(=O)c1ccc2c(-c3ccc(C(F)(F)F)cc3)cccc2c1)c1ccccn1 [Compound T7, N-[(1S)-1-(2-pyridyl)ethyl]-5-[4-(trifluoromethyl)phenyl]naphthalene-2-carboxamide]
% inhibition of H2030 cells (KRAS G12C) (H2030 cells (KRAS G12C); [3]): sensitizes cells resistant to Compound K1 | % inhibition of H2030 cells (KRAS G12C) (H2030 cells (KRAS G12C); [4]): sensitizes cells resistant to Compound K2 | % inhibition of H2030 cells (KRAS G12C) (H2030 cells (KRAS G12C); [5]): sensitizes cells resistant to Compound K3 | % inhibition of H2030 cells (KRAS G12C) (H2030 cells (KRAS G12C); [6]): sensitizes cells resistant to Compound K4 | combination effect on cell viability (qualitative) [1, 3]: sensitizes cells resistant to Compound K1 | combination effect on cell viability (qualitative) [1, 4]: sensitizes cells resistant to Compound K2 | combination effect on cell viability (qualitative) [1, 5]: sensitizes cells resistant to Compound K3 | combination effect on cell viability (qualitative) [1, 6]: sensitizes cells resistant to Compound K4 | % inhibition of H358 parental cells (KRAS G12C) [2, 3]: sensitizes cells resistant to Compound K1 | % inhibition of H358 parental cells (KRAS G12C) [2, 4]: sensitizes cells resistant to Compound K2 | % inhibition of H358 parental cells (KRAS G12C) [2, 5]: sensitizes cells resistant to Compound K3 | % inhibition of H358 parental cells (KRAS G12C) [2, 6]: sensitizes cells resistant to Compound K4

CNS(=O)(=O)c1ccc(Nc2ccc(C(F)(F)F)cc2)c(-c2cn(C)cn2)c1 [Compound T8, N-methyl-3-(1-methylimidazol-4-yl)-4-[4-(trifluoromethyl)anilino]benzenesulfonamide]
% inhibition of H2030 cells (KRAS G12C) (H2030 cells (KRAS G12C); [3]): sensitizes cells resistant to Compound K1 | % inhibition of H2030 cells (KRAS G12C) (H2030 cells (KRAS G12C); [4]): sensitizes cells resistant to Compound K2 | % inhibition of H2030 cells (KRAS G12C) (H2030 cells (KRAS G12C); [5]): sensitizes cells resistant to Compound K3 | % inhibition of H2030 cells (KRAS G12C) (H2030 cells (KRAS G12C); [6]): sensitizes cells resistant to Compound K4 | combination effect on cell viability (qualitative) [1, 3]: sensitizes cells resistant to Compound K1 | combination effect on cell viability (qualitative) [1, 4]: sensitizes cells resistant to Compound K2 | combination effect on cell viability (qualitative) [1, 5]: sensitizes cells resistant to Compound K3 | combination effect on cell viability (qualitative) [1, 6]: sensitizes cells resistant to Compound K4 | % inhibition of H358 parental cells (KRAS G12C) [2, 3]: sensitizes cells resistant to Compound K1 | % inhibition of H358 parental cells (KRAS G12C) [2, 4]: sensitizes cells resistant to Compound K2 | % inhibition of H358 parental cells (KRAS G12C) [2, 5]: sensitizes cells resistant to Compound K3 | % inhibition of H358 parental cells (KRAS G12C) [2, 6]: sensitizes cells resistant to Compound K4

Cn1cc2c3cc(C(=O)O)ccc3n(-c3ccc(C(F)(F)F)cc3)c2n1 [Compound T10]
% inhibition of H2030 cells (KRAS G12C) (H2030 cells (KRAS G12C); [3]): sensitizes cells resistant to Compound K1 | % inhibition of H2030 cells (KRAS G12C) (H2030 cells (KRAS G12C); [4]): sensitizes cells resistant to Compound K2 | % inhibition of H2030 cells (KRAS G12C) (H2030 cells (KRAS G12C); [5]): sensitizes cells resistant to Compound K3 | % inhibition of H2030 cells (KRAS G12C) (H2030 cells (KRAS G12C); [6]): sensitizes cells resistant to Compound K4 | combination effect on cell viability (qualitative) [1, 3]: sensitizes cells resistant to Compound K1 | combination effect on cell viability (qualitative) [1, 4]: sensitizes cells resistant to Compound K2 | combination effect on cell viability (qualitative) [1, 5]: sensitizes cells resistant to Compound K3 | combination effect on cell viability (qualitative) [1, 6]: sensitizes cells resistant to Compound K4 | % inhibition of H358 parental cells (KRAS G12C) [2, 3]: sensitizes cells resistant to Compound K1 | % inhibition of H358 parental cells (KRAS G12C) [2, 4]: sensitizes cells resistant to Compound K2 | % inhibition of H358 parental cells (KRAS G12C) [2, 5]: sensitizes cells resistant to Compound K3 | % inhibition of H358 parental cells (KRAS G12C) [2, 6]: sensitizes cells resistant to Compound K4
